What was measured:
EML4-ALK = EML4-ALK (Homo sapiens, UniProt Q9UM73); assay: Inhibition of EML4-ALK (unknown origin) phosphorylation by ELISA; type: protein assay
[1] = Metabolic stability in human liver microsomes assessed as half life at 1 uM measured for 60 mins by LC-MS/MS analysis; type: ADME, Microsome
[2] = Antiproliferative activity against human NCI-H1975 cells expressing EGFR mutation incubated for 48 hrs by CCK8 assay
NCI-H2228 = assay: Antiproliferative activity against human NCI-H2228 cells expressing EML4-ALK fusion incubated for 48 hrs by CCK8 assay
NCI-H522 = assay: Antiproliferative activity against human NCI-H522 cells expressing wild-type EGFR/ALK incubated for 48 hrs by CCK8 assay
BaF3 = assay: Antiproliferative activity against mouse BaF3 cells expressing EML4-ALK fusion incubated for 48 hrs by CCK8 assay
PC-9 = assay: Antiproliferative activity against human PC-9 cells expressing EGFR mutation incubated for 48 hrs by CCK8 assay
[3] = Metabolic stability in human liver microsomes assessed as clearance at 1 uM measured for 60 mins by LC-MS/MS analysis; type: ADME, Microsome; conditions: read-out: CLH
NCI-H1975 [4] = assay: Antitumor activity against human NCI-H1975 cells xenografted in BALB/c-nu mouse at 30 mg/kg, po administered daily orally for 7 days relative to control; type: functional; conditions: Mus musculus, NCI-H1975, 168 h, time 7 day, read-out: TGI
NCI-H1975 [5] = assay: Antitumor activity against human NCI-H1975 cells xenografted in BALB/c-nu mouse at 30 mg/kg, po administered daily orally for 21 days relative to control; type: functional; conditions: time 21 day, 30 mg/kg, 504 h
NCI-H1975 [6] = assay: Antitumor activity against human NCI-H1975 cells xenografted in BALB/c-nu mouse at 15 mg/kg, po administered daily orally for 21 days relative to control; type: functional; conditions: time 21 day, 15 mg/kg, 504 h
NCI-H1975 [7] = assay: Antitumor activity against human NCI-H1975 cells xenografted in BALB/c-nu mouse at 5 mg/kg, po administered daily orally for 21 days relative to control; type: functional; conditions: time 21 day, 5 mg/kg, 504 h

Chain of EML4-ALK (Q9UM73 whole entry): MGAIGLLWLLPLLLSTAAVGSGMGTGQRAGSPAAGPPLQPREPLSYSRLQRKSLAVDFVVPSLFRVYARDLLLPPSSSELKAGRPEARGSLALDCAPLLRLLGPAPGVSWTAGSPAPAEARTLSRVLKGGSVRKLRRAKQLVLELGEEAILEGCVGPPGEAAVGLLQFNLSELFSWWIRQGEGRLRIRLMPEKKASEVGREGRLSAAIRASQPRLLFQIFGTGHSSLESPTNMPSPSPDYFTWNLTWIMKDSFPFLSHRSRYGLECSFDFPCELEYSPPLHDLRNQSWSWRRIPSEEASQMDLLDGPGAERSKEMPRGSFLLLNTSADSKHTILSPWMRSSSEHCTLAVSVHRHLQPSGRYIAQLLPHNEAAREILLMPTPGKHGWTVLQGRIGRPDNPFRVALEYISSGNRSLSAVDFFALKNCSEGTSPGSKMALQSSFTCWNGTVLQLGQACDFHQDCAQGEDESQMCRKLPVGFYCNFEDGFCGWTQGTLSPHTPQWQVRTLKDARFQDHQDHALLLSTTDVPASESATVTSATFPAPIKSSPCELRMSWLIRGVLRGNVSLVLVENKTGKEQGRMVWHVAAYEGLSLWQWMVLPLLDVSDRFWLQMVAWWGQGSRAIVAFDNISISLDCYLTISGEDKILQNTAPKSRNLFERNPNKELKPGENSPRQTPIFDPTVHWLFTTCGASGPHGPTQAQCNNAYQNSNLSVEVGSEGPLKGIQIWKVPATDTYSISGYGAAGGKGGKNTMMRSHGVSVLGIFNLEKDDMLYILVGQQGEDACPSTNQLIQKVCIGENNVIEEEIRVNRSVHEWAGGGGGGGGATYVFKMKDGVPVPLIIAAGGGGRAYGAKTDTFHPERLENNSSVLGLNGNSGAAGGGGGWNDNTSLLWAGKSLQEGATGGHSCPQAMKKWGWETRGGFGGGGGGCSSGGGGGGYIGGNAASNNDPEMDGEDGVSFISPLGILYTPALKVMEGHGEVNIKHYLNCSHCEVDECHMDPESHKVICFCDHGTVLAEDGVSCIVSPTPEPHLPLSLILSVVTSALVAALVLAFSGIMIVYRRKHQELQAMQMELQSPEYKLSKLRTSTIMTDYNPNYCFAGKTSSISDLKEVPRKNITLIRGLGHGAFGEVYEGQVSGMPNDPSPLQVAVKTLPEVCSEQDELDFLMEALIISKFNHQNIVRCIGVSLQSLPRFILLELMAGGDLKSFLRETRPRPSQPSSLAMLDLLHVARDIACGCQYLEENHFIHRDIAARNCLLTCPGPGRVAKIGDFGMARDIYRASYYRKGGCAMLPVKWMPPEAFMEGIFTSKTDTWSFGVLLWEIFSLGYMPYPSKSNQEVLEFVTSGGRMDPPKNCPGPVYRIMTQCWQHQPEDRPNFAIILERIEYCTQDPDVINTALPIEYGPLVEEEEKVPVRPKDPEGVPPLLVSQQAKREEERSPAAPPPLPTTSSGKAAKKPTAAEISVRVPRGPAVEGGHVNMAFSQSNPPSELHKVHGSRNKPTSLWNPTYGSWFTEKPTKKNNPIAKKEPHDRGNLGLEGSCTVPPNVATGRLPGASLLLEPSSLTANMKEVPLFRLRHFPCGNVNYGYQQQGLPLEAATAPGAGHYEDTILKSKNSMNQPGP
Chain of EML4-ALK (Q9HC35 whole entry, further chain): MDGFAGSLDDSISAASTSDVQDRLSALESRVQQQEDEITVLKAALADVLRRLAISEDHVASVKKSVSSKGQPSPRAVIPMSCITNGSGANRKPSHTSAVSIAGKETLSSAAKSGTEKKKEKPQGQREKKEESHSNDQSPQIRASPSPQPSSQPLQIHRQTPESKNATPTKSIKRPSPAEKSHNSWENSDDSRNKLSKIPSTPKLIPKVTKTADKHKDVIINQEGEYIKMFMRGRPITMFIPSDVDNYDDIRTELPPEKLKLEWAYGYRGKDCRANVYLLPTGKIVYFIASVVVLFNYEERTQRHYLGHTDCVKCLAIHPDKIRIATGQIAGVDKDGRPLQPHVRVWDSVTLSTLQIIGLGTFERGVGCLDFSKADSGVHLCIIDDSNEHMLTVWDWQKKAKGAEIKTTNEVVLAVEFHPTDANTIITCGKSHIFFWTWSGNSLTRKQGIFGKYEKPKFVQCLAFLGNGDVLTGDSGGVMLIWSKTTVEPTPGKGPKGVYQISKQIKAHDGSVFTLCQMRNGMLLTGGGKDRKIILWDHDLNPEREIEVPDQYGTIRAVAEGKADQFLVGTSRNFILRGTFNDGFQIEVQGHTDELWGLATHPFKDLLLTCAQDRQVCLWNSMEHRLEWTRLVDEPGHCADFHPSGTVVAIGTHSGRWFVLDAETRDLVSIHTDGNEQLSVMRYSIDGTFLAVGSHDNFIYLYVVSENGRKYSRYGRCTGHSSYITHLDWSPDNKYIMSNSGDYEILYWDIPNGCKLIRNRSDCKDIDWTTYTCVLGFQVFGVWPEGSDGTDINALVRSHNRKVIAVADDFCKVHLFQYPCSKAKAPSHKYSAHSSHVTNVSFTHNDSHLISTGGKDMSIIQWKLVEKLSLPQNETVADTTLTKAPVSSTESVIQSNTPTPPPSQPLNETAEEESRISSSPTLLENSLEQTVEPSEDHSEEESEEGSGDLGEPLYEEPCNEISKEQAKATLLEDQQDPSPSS

| Compound | IC50 (EML4-ALK) [nM] | half-life at 1 µM [1] [min] | IC50 ([2]; Homo sapiens, NCI-H1975, 48 h) [nM] | IC50 (NCI-H2228; Homo sapiens, NCI-H2228, 48 h) [nM] | IC50 (NCI-H522; Homo sapiens, NCI-H522, 48 h) [nM] | IC50 (BaF3; Mus musculus, BaF3, 48 h) [nM] | IC50 (PC-9; Homo sapiens, PC-9, 48 h) [nM] | microsomal CLint at 1 µM [3] [µL/min/mg] | inhibition in vivo at 30 mg/kg (NCI-H1975 [4]) [%] | IC50 ([2]; nci-h1975) [nM] | IC50 (NCI-H2228; nci-h2228) [nM] | IC50 (NCI-H522; nci-h522) [nM] | IC50 (BaF3; baf3) [nM] | TGI (NCI-H1975 [5]) [%] | TGI (NCI-H1975 [6]) [%] | IC50 (PC-9; pc-9) [nM] | TGI (NCI-H1975 [7]) [%] |
| --- | --- | --- | --- | --- | --- | --- | --- | --- | --- | --- | --- | --- | --- | --- | --- | --- | --- |
| C=CC(=O)Nc1cc(Nc2ncc(Cl)c(Nc3cccc(F)c3[S+]([O-])C(C)C)n2)c(OC)cc1N(C)CCN(C)C (stereo unspecified) | 5.47 | 32.3 | 7.59 | 23.8 | 2490 | 2.97 | 2.81 | 107 | – | – | – | – | – | – | – | – | – |
| C=CC(=O)Nc1cc(Nc2ncc(Cl)c(Nc3ccccc3[S+]([O-])CC)n2)c(OC)cc1N(C)CCN(C)C (stereo unspecified) | 4.69 | – | 4.3 | 43.1 | – | 3.6 | 6.1 | – | – | – | – | – | – | – | – | – | – |
| [2H]C([2H])([2H])C([2H])([2H])[S+]([O-])c1c(F)cccc1Nc1nc(Nc2cc(NC(=O)C=C)c(N(C)CCN(C)C)cc2OC)ncc1Cl (stereo unspecified) | 5.59 | 125 | 9.56 | 58.2 | 5330 | 7.74 | 5.13 | 27.7 | 85.9 | – | – | – | – | – | – | – | – |
| C=CC(=O)Nc1cc(Nc2ncc(Cl)c(Nc3ccc(Cl)cc3[S+]([O-])C(C)C)n2)c(OC)cc1N(C)CCN(C)C (stereo unspecified) | 6.81 | 26.3 | 3.77 | 18.9 | 1380 | 2.37 | 2.53 | 132 | – | – | – | – | – | – | – | – | – |
| Cc1cc(Nc2ncc(Cl)c(Nc3ccccc3S(=O)(=O)C(C)C)n2)c(OC(C)C)cc1C1CCNCC1 [CERITINIB] | – | – | 2110 | 18.3 | 2760 | 10.1 | 2150 | – | – | – | – | – | – | – | – | – | – |
| [2H]C([2H])([2H])C([2H])([2H])[S+]([O-])c1ccccc1Nc1nc(Nc2cc(NC(=O)C=C)c(N(C)CCN(C)C)cc2OC)ncc1Cl (single isomer, unassigned; (+)) | – | – | – | – | – | – | – | – | – | 5.36 | 37.6 | 6330 | 18.3 | 91.87 | 86.97 | 6.88 | 72.01 |
| [2H]C([2H])([2H])C([2H])([S+]([O-])c1ccccc1Nc1nc(Nc2cc(NC(=O)C=C)c(N(C)CCN(C)C)cc2OC)ncc1Cl)C([2H])([2H])[2H] (stereo unspecified) | 10 | 31.9 | 9.26 | 12.5 | 2730 | 14.4 | 45.9 | 109 | – | – | – | – | – | – | – | – | – |

Reference: ChEMBL document CHEMBL6078700, “Synthesis of novel deuterated EGFR/ALK dual-target inhibitors and their activity against non-small cell lung cancer” (Eur J Med Chem, 2025)
